In patent publication US20250289789A1, “REVERSIBLE LYSINE COVALENT MODIFIERS OF CDK2 AND USES THEREOF” (Terremoto Biosciences, Inc., priority 2023, published 2025):
Like-named read-outs stand apart in the source and are kept apart here.

Key:
Assay type in all cases: cell-based
[1] = test system: Phospho-Rb Ser807/811 in OVCAR3 cells; assay: OVCAR3 Phospho-Rb Ser807/811 HTRF assay; conditions: OVCAR3 cells, Phospho-Rb Ser807/811 HTRF, 1 hour incubation, read-out: pRb-OVCAR3 IC50
Experimental: Cells were trypsinized and resuspended in 1 mM hydroxyurea (Sigma; H8627), 90% RPMI and 10% fetal bovine serum. […] Dose response curve normalized to DMSO control was plotted using four-parameter logistic model for IC50 calculation.

[2] = biological target: T1, CDK4-NanoLuc fusion with CCND1 in 293T or 293 cells (Homo sapiens, UniProt P11802); assay: NanoBRET Target Engagement (TE) Intracellular Kinase Assay, CDK4/CCND1; conditions: NanoBRET TE intracellular kinase assay, 2-hour incubation, read-out: NanoBRET-CDK4/D1 IC50
T1 construct: host or cells: 293T (ATCC CRL-3216) or 293 (ATCC CRL-1573)
T1 sequence (P11802 whole entry, the tested form may be a part): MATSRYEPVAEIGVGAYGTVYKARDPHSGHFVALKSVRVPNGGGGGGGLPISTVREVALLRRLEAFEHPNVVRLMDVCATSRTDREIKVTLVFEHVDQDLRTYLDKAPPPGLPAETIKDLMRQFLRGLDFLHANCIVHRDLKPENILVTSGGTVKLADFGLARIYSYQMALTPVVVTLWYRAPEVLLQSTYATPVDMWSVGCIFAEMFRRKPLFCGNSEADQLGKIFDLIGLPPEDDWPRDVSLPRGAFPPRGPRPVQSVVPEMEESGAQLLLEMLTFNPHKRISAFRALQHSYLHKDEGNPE
T1 sequence (P24385 whole entry partner, the tested form may be a part): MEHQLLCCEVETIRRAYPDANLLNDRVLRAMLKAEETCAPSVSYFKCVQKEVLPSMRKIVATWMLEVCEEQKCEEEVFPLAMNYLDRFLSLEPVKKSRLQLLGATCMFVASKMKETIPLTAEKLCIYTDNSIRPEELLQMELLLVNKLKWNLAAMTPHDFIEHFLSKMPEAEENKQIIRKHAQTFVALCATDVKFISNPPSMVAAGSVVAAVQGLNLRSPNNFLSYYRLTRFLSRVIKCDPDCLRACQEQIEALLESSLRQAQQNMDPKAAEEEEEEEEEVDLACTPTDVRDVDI
Experimental: (§1) Inhibitory effects of compounds were measured in NanoBRET TE Intracellular Kinase Assay. […] Cells were co-transfected with 1 μg/mL of CDK-NanoLuc Fusion Vector (Promega; NV2701 for CDK1, NV2781 for CDK2, NV2811 for CDK4, NV2841 for CDK6) and 1 μg/mL of the corresponding Cyclin Expression Vector (Promega; NV2601 for CCNB1, NV2641 for CCNE1, NV2621 for CCND1, NV2631 for CCND3) using FuGENE HD Transfection Reagent (Promega; E2311). […] 20 uL/well of 3× Intracellular TE Nano-Glo Substrate/Inhibitor (Promega; N2162) were added to 384-well plates and incubated for 3 minutes at room temperature. NanoBRET signals (donor emission wavelength at 450 nm, acceptor emission wavelength at 610 nm) were measured using Envision plate reader (PerkinElmer). NanoBRET ratio was calculated by: BRET Ratio=raw signal for acceptor/raw signal for donor. Dose response curve normalized to DMSO control was plotted using four-parameter logistic model for IC50 calculation.

[3] = biological target: T2, CDK2-NanoLuc fusion with CCNE1 in 293T or 293 cells (Homo sapiens, UniProt P24941); assay: NanoBRET Target Engagement (TE) Intracellular Kinase Assay, CDK2/CCNE1; conditions: NanoBRET TE intracellular kinase assay, 2-hour incubation, read-out: NanoBRET-CDK2/E1 IC50
T2 construct: host or cells: 293T (ATCC CRL-3216) or 293 (ATCC CRL-1573)
Experimental: as §1

Compound	IC50 ([1]; Homo sapiens, OVCAR-3, 1 h)	IC50 [2]	IC50 [3]	IC50 [1]
COc1cc(O)c(C=O)c(OCC(=O)Nc2cc([C@H]3CC[C@@H](OC(=O)N4C[C@H]5C[C@@H]4CS5(=O)=O)C3)n[nH]2)c1 [Compound 118]	0.101 µM	6.48 µM	0.0554 µM	
COc1cc(O)c(C=O)c(OCC(=O)Nc2cc([C@H]3CC[C@@H](OC(=O)NC4CN(C)C4)C3)[nH]n2)c1 [Compound 185]	0.363 µM	> 10 µM	0.445 µM	
CC1(NC(=O)O[C@@H]2CC[C@H](c3cc(Nc4nccc5c(C=O)c(O)ccc45)n[nH]3)C2)CC1 [Compound 261, (1R,3S)-3-(3-((5-formyl-6-hydroxyisoquinolin-1-yl)amino)-1H-pyrazol-5-yl)cyclopentyl (1-methylcyclopropyl)carbamate]	0.051 µM	4.1 µM	0.0047 µM	
CCNN(C)C(=O)O[C@@H]1CC[C@H](c2cc(NC(=O)COc3cc(OC)cc(O)c3C=O)n[nH]2)C1 [Compound 276, (1R,3S)-3-(3-(2-(2-formyl-3-hydroxy-5-methoxyphenoxy)acetamido)-1H-pyrazol-5-yl)cyclopentyl 2-ethyl-1-methylhydrazine-1-carboxylate]	0.0316 µM	> 10 µM	0.00509 µM	
COc1cc(O)c(C=O)c(OCC(=O)Nc2cc([C@H]3CC[C@@H](OC(=O)N[C@@H](C)C(F)F)C3)[nH]n2)c1 [Compound 134]	0.0371 µM	3.8 µM	0.00326 µM	
COc1cc(O)c(C=O)c(OCC(=O)Nc2cc([C@H]3CC[C@@H](OC(=O)N(O)C(C)C)C3)[nH]n2)c1 [Compound 173]	0.0342 µM	5.34 µM	0.00399 µM	
COc1cc(O)c(C=O)c(OCC(=O)Nc2cc([C@H]3CC[C@@H](OC(=O)N4CC(C#N)C4)C3)[nH]n2)c1 [Compound 153]	0.0497 µM	> 10 µM	0.0131 µM	
COc1cc(O)c(C=O)c(OCC(=O)Nc2cc([C@H]3CC[C@@H](OC(=O)NC[C@H]4CCO4)C3)[nH]n2)c1 [Compound 143]	0.142 µM	> 10 µM	0.0131 µM	
COc1cc(O)c(C=O)c(OCC(=O)Nc2cc([C@H]3CC[C@@H](OC(=O)Nc4ccccc4)C3)[nH]n2)c1 [Compound 164]	0.301 µM	5.88 µM	0.0096 µM	
COc1cc(O)c(C=O)c(OCC(=O)Nc2cc([C@H]3CC[C@@H](OC(=O)N4CC5(CCN5C)C4)C3)[nH]n2)c1 [Compound 191]	0.127 µM	> 10 µM	0.025 µM	
COc1cc(O)c(C=O)c(OCC(=O)Nc2cc([C@H]3CC[C@@H](OC(=O)NC4(C#N)CCC4)C3)[nH]n2)c1 [Compound 148]	0.113 µM	4.25 µM	0.00697 µM	
Cc1cc(O)c(C=O)c(OCC(=O)Nc2cc([C@H]3CC[C@@H](OC(=O)NC4(C#N)CC4)C3)[nH]n2)c1 [Compound 139]	0.178 µM	3.99 µM	0.0129 µM	
COc1cc(O)c(C=O)c(OCC(=O)Nc2cc([C@H]3CC[C@@H](OC(=O)N4NC5CCC4C5)C3)[nH]n2)c1 (stereo partly drawn) [Compound 273, (1R,3S)-3-(3-(2-(2-formyl-3-hydroxy-5-methoxyphenoxy)acetamido)-1H-pyrazol-5-yl)cyclopentyl 2,3-diazabicyclo[2.2.1]heptane-2-carboxylate]	0.0295 µM	5.82 µM	0.00238 µM	
COc1cc(O)c(C=O)c(OCC(=O)Nc2cc([C@H]3CC[C@@H](OC(=O)NCc4ccccn4)C3)[nH]n2)c1 [Compound 166]	0.167 µM	> 10 µM	0.0103 µM	
O=Cc1c(O)cc(Cl)cc1OCC(=O)Nc1cc([C@H]2CC[C@@H](OC(=O)N3C4COCC3C4)C2)[nH]n1 [Compound 183]	0.14 µM	4.2 µM	0.0101 µM	
COc1cc(O)c(C=O)c(OCC(=O)Nc2cc([C@H]3CC[C@@H](OC(=O)NCCOC(F)(F)F)C3)n[nH]2)c1 [Compound 117]	0.022 µM	8.09 µM	0.00219 µM	
Cc1cc(O)c(C=O)c(OCC(=O)Nc2cc([C@H]3CC[C@@H](OC(=O)NC4(C)CC4)C3)[nH]n2)c1 [Compound 145]	0.0643 µM	4.07 µM	0.00346 µM	
COc1cc(O)c(C=O)c(OCC(=O)Nc2cc([C@H]3CC[C@@H](OC(=O)N(OC)C(C)C)C3)[nH]n2)c1 [Compound 171]	0.107 µM	> 10 µM	0.00324 µM	
CCc1cc(O)c(C=O)c(OCC(=O)Nc2cc([C@H]3CC[C@@H](OC(=O)NC4(C)CC4)C3)[nH]n2)c1 [Compound 141]	0.1 µM	5.5 µM	0.00187 µM	
CC(C)NC(=O)O[C@@H]1CC[C@H](c2cc(Nc3nccc4c(C=O)c(O)ccc34)n[nH]2)C1 [Compound 260, (1R,3S)-3-(3-((5-formyl-6-hydroxyisoquinolin-1-yl)amino)-1H-pyrazol-5-yl)cyclopentyl isopropylcarbamate]	0.17 µM	> 10 µM	0.015 µM	
COc1cc(O)c(C=O)c(OCC(=O)Nc2cc([C@H]3CC[C@@H](OC(=O)N[C@H](C)CC(F)F)C3)[nH]n2)c1 [Compound 119]	0.0264 µM	7.86 µM	0.00231 µM	

Now those with a lower IC50 [2], led by results:

IC50 ([1]; Homo sapiens, OVCAR-3, 1 h)	IC50 [2]	IC50 [3]	IC50 [1]	Compound
0.0161 µM	1.08 µM	0.00282 µM		COc1cc(O)c(C=O)c(OCC(=O)Nc2cc([C@H]3CC[C@@H](OC(=O)NC4(C(F)F)CC4)C3)[nH]n2)c1 [Compound 140, (1R,3S)-3-{5-[2-(2-formyl-3-hydroxy-5-methoxyphenoxy)acetamido]-2H-pyrazol-3-yl}cyclopentyl N-[1-(difluoromethyl)cyclopropyl]carbamate]
0.0249 µM	0.864 µM	0.00369 µM		COc1cc(O)c(C=O)c(O[C@H](C)C(=O)Nc2cc([C@H]3CC[C@@H](OC(=O)NC4(C)CC4)C3)[nH]n2)c1 [Compound 130, (1R,3S)-3-(3-((R)-2-(2-formyl-3-hydroxy-5-methoxyphenoxy)propanamido)-1H-pyrazol-5-yl)cyclopentyl (1-methylcyclopropyl)carbamate]
0.0361 µM	2.89 µM	0.00347 µM		COc1cc(O)c(C=O)c(OCC(=O)Nc2cc([C@H]3CC[C@@H](OC(=O)N(C(C)C)C(C)C)C3)[nH]n2)c1 [Compound 151]
0.0163 µM	1.24 µM	0.00194 µM		CCOc1cc(O)c(C=O)c(OCC(=O)Nc2cc([C@H]3CC[C@@H](OC(=O)NC4(C)CC4)C3)[nH]n2)c1 [Compound 115]
0.0107 µM	0.668 µM	0.00326 µM		COc1cc(O)c(C=O)c2c1C[C@@H](C(=O)Nc1cc([C@H]3CC[C@@H](OC(=O)NC(C)C)C3)[nH]n1)C2 [Compound 174, (1R,3S)-3-(3-((S)-4-formyl-5-hydroxy-7-methoxy-2,3-dihydro-1H-indene-2-carboxamido)-1H-pyrazol-5-yl)cyclopentyl isopropylcarbamate]
0.0169 µM	1.42 µM	0.00222 µM		COc1cc(O)c(C=O)c(OCC(=O)Nc2cc([C@H]3CC[C@@H](OC(=O)NC4(CF)CC4)C3)[nH]n2)c1 [Compound 136]
0.0409 µM	2.38 µM	0.00988 µM		COc1cc(O)c(C=O)c(OCC(=O)Nc2cc([C@H]3CC[C@@H](OC(=O)NC4(CC#N)CC4)C3)[nH]n2)c1 [Compound 146]
	1.98 µM	0.00199 µM	0.123 µM	COc1cc(O)c(C=O)c2c1CC(C(=O)Nc1cc([C@H]3CC[C@@H](OC(=O)N4CCCCN4C)C3)[nH]n1)C2 (single isomer, unassigned) [Compound 266, (1R,3S)-3-(3-((*)-4-formyl-5-hydroxy-7-methoxy-2,3-dihydro-1H-indene-2-carboxamido)-1H-pyrazol-5-yl)cyclopentyl 2-methyltetrahydropyridazine-1(2H)-carboxylate]
0.0377 µM	2.58 µM	0.00199 µM		COc1cc(O)c(C=O)c(OCC(=O)Nc2cc([C@H]3CC[C@@H](OC(=O)N4C[C@@H](F)[C@H](F)C4)C3)n[nH]2)c1 [Compound 124]
0.027 µM	2.57 µM	0.00262 µM		COc1cc(O)c(C=O)c(OCC(=O)Nc2cc([C@H]3CC[C@@H](OC(=O)N4[C@H](C)C[C@@H]4C)C3)[nH]n2)c1 [Compound 123]
	3.25 µM	0.24 µM	> 10 µM	COc1cc(O)c(C=O)c2c1CC(C(=O)Nc1cc([C@H]3C[C@@H](OC(=O)N(C)N(C)C)C3)n[nH]1)C2 (single isomer, unassigned) [Compound 271]
0.0196 µM	2.8 µM	0.00442 µM		COc1cc(O)c(C=O)c(OCC(=O)Nc2cc([C@H]3CC[C@@H](OC(=O)N[C@@H]4C[C@@H]4F)C3)[nH]n2)c1 [Compound 133]
